Test results taken from PubChem BioAssay (NCI).
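Tested at 5 concentrations; 48 h exposure; 96-well plates; endpoints linearly interpolated, else capped at highest concentration. At the GI50, growth is halved. Definition used: TGI = concentration required for complete inhibition of growth.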

How the values were obtained:
Assay in all cases: DTP human tumour cell line panel, 48 h
CAKI-1 renal = tested on: CAKI-1 renal
NCI-H226 lung = tested on: NCI-H226 lung
SN12C renal = tested on: SN12C renal
HT29 colon = tested on: HT29 colon
HOP-92 NSCLC = tested on: HOP-92 NSCLC
MOLT-4 leukemia = tested on: MOLT-4 leukemia
M14 melanoma = tested on: M14 melanoma
786-0 renal = tested on: 786-0 renal
OVCAR-4 ovarian = tested on: OVCAR-4 ovarian
ACHN renal = tested on: ACHN renal
UO-31 renal = tested on: UO-31 renal
KM12 colon = tested on: KM12 colon
OVCAR-5 ovarian = tested on: OVCAR-5 ovarian
HCT-116 colon = tested on: HCT-116 colon
IGROV1 ovarian = tested on: IGROV1 ovarian
EKVX NSCLC = tested on: EKVX NSCLC
HCT-15 colon = tested on: HCT-15 colon
HCC-2998 colon = tested on: HCC-2998 colon
UACC-257 melanoma = tested on: UACC-257 melanoma
NCI-H460 lung = tested on: NCI-H460 lung
COLO 205 colon = tested on: COLO 205 colon
SF-268 CNS = tested on: SF-268 CNS
SW-620 colon = tested on: SW-620 colon
NCI-H522 lung = tested on: NCI-H522 lung
HOP-62 NSCLC = tested on: HOP-62 NSCLC
A498 renal = tested on: A498 renal
SK-MEL-2 melanoma = tested on: SK-MEL-2 melanoma
OVCAR-3 ovarian = tested on: OVCAR-3 ovarian
SF-539 CNS = tested on: SF-539 CNS
SK-MEL-28 melanoma = tested on: SK-MEL-28 melanoma
U251 CNS = tested on: U251 CNS
UACC-62 melanoma = tested on: UACC-62 melanoma
KM20L2 colon = tested on: KM20L2 colon
NCI-H23 lung = tested on: NCI-H23 lung
MALME-3M melanoma = tested on: MALME-3M melanoma
SK-OV-3 ovarian = tested on: SK-OV-3 ovarian
RPMI-8226 leukemia = tested on: RPMI-8226 leukemia
SNB-19 CNS = tested on: SNB-19 CNS
SNB-75 CNS = tested on: SNB-75 CNS
OVCAR-8 ovarian = tested on: OVCAR-8 ovarian
TK-10 renal = tested on: TK-10 renal
SF-295 CNS = tested on: SF-295 CNS
K-562 leukemia = tested on: K-562 leukemia
A549 NSCLC = tested on: A549 NSCLC
SK-MEL-5 melanoma = tested on: SK-MEL-5 melanoma
LOX IMVI melanoma = tested on: LOX IMVI melanoma
HL-60(TB) leukemia = tested on: HL-60(TB) leukemia

In the case of CC(=O)[O-].O=C([CH-]C(=O)c1ccccc1)c1ccccc1.O=C([CH-]C(=O)c1ccccc1)c1ccccc1.[Y+3], the GI50 (CAKI-1 renal) is reported as 4.53 µM, the TGI (CAKI-1 renal) is reported as 19.4 µM and the GI50 (NCI-H226 lung) is reported as 2.56 µM. It also gave a TGI (NCI-H226 lung) of 9.69 µM, a GI50 (SN12C renal) of 6.23 µM and a TGI (SN12C renal) of 38 µM. For the same molecule, the GI50 (HT29 colon) was 7.69 µM, the TGI (HT29 colon) was 20.7 µM and the GI50 (HOP-92 NSCLC) was 4.04 µM. For the same molecule, the TGI (HOP-92 NSCLC) was 18.9 µM, the GI50 (MOLT-4 leukemia) was 2.91 µM and the TGI (MOLT-4 leukemia) was 32.3 µM. The GI50 (M14 melanoma) was 5.34 µM, the TGI (M14 melanoma) was 18.9 µM and the GI50 (786-0 renal) was 3.9 µM. For the same molecule, the TGI (786-0 renal) was 18 µM, the GI50 (OVCAR-4 ovarian) was 5.73 µM and the TGI (OVCAR-4 ovarian) was 77.3 µM. It also gave a GI50 (ACHN renal) of 5.52 µM, a TGI (ACHN renal) of 22.9 µM and a GI50 (UO-31 renal) of 3.84 µM. For the same molecule, the TGI (UO-31 renal) was 9.66 µM, the GI50 (KM12 colon) was 4.36 µM and the TGI (KM12 colon) was 24.5 µM. It also gave a GI50 (OVCAR-5 ovarian) of 17.3 µM, a TGI (OVCAR-5 ovarian) of 80.6 µM and a GI50 (HCT-116 colon) of 4.97 µM. For the same molecule, the TGI (HCT-116 colon) was 19.3 µM, the GI50 (IGROV1 ovarian) was 6.94 µM and the TGI (IGROV1 ovarian) was 35.8 µM. For the same molecule, the GI50 (EKVX NSCLC) was 3.59 µM, the TGI (EKVX NSCLC) was 17.8 µM and the GI50 (HCT-15 colon) was 5.45 µM. It also gave a TGI (HCT-15 colon) of 26.7 µM, a GI50 (HCC-2998 colon) of 5.72 µM and a TGI (HCC-2998 colon) of 19.7 µM. The GI50 (UACC-257 melanoma) was 9.8 µM, the TGI (UACC-257 melanoma) was 31.7 µM and the GI50 (NCI-H460 lung) was 2.69 µM. The TGI (NCI-H460 lung) was 18.4 µM, the GI50 (COLO 205 colon) was 8.61 µM and the TGI (COLO 205 colon) was 22.1 µM. It also gave a GI50 (SF-268 CNS) of 4.27 µM, a TGI (SF-268 CNS) of 31.3 µM and a GI50 (SW-620 colon) of 6.18 µM. It also gave a TGI (SW-620 colon) of 46 µM, a GI50 (NCI-H522 lung) of 1.58 µM and a TGI (NCI-H522 lung) of 6.06 µM. It also gave a GI50 (HOP-62 NSCLC) of 2.31 µM, a TGI (HOP-62 NSCLC) of 13.4 µM and a GI50 (A498 renal) of 16.7 µM. It also gave a TGI (A498 renal) of 41.1 µM, a GI50 (SK-MEL-2 melanoma) of 2.85 µM and a TGI (SK-MEL-2 melanoma) of 9.69 µM. The GI50 (OVCAR-3 ovarian) was 3.12 µM, the TGI (OVCAR-3 ovarian) was 15.8 µM and the GI50 (SF-539 CNS) was 8.67 µM. It also gave a TGI (SF-539 CNS) of 37 µM, a GI50 (SK-MEL-28 melanoma) of 8.34 µM and a TGI (SK-MEL-28 melanoma) of 39 µM. The GI50 (U251 CNS) was 3.91 µM, the TGI (U251 CNS) was 31.5 µM and the GI50 (UACC-62 melanoma) was 3.8 µM. For the same molecule, the TGI (UACC-62 melanoma) was 17.8 µM, the GI50 (KM20L2 colon) was 6.51 µM and the TGI (KM20L2 colon) was 26.3 µM. The GI50 (NCI-H23 lung) was 2.2 µM, the TGI (NCI-H23 lung) was 11.1 µM and the GI50 (MALME-3M melanoma) was 8.02 µM. For the same molecule, the TGI (MALME-3M melanoma) was 39.5 µM, the GI50 (SK-OV-3 ovarian) was 8.31 µM and the TGI (SK-OV-3 ovarian) was 37.1 µM. It also gave a GI50 (RPMI-8226 leukemia) of 4.47 µM, a TGI (RPMI-8226 leukemia) of 33 µM and a GI50 (SNB-19 CNS) of 6.17 µM. For the same molecule, the TGI (SNB-19 CNS) was 64.7 µM, the GI50 (SNB-75 CNS) was 3.1 µM and the TGI (SNB-75 CNS) was 7.42 µM. For the same molecule, the GI50 (OVCAR-8 ovarian) was 3.04 µM, the TGI (OVCAR-8 ovarian) was 20.6 µM and the GI50 (TK-10 renal) was 8.27 µM. The TGI (TK-10 renal) was 66.5 µM, the GI50 (SF-295 CNS) was 3.29 µM and the TGI (SF-295 CNS) was 18.5 µM. The GI50 (K-562 leukemia) was 3.45 µM, the TGI (K-562 leukemia) was over 100 µM and the GI50 (A549 NSCLC) was 10.3 µM. It also gave a TGI (A549 NSCLC) of 34.3 µM, a GI50 (SK-MEL-5 melanoma) of 3.56 µM and a TGI (SK-MEL-5 melanoma) of 14.2 µM. It also gave a GI50 (LOX IMVI melanoma) of 4.95 µM, a TGI (LOX IMVI melanoma) of 23.4 µM and a GI50 (HL-60(TB) leukemia) of 2.44 µM. For the same molecule, the TGI (HL-60(TB) leukemia) was 10.8 µM.
